# According to paper PMC12775434, “Ultra-large virtual screening unveils potent agonists of the neuromodulatory orphan receptor GPR139” (Nature Communications, 2025):
# “And” between values parts separate entries of the source, which are not always exact repeats. Equal entries are not always repeated.
# Assays:
# Type in all cases: cell-based
# GPR139 [1] = target: T1, GPR139 (Homo sapiens, UniProt Q6DWJ6); assay: Ca2+ mobilization assay, agonist mode, stable GPR139-CHOk1 cell line; details: for EC50 / Emax: Supplementary Table 2, mean ± SEM; for EC50: read-out: pEC50 Ca2+ (converted); for Emax: normalized to Lundbeck Cmp 1a, read-out: Emax (%) Ca2+
# T1 sequence (Q6DWJ6 1-353): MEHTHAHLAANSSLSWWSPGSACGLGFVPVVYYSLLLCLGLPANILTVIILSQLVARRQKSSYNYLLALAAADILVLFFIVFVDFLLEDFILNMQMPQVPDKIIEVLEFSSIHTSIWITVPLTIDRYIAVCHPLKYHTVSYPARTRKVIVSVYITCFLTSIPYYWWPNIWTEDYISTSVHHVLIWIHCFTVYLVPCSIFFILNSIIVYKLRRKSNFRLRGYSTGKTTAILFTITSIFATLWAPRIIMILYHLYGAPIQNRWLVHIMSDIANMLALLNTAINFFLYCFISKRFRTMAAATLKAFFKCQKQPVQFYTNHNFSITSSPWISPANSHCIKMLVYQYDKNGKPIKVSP
# In short: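 Agonist activity of compounds is assessed in stably transfected CHO-K1 cells using the calcium dye Fluo-4 at 37 °C in HEPES-buffered HBSS (pH 7.4). Efficacy is expressed relative to the reference agonist Lundbeck Cmp 1a, set as 100%.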
# GPR139 [2] = target: T1, GPR139; assay: Ca2+ mobilization assay, antagonist mode (EC80 800 nM Lundbeck Cmp 1a after 20 min preincubation), GPR139-CHOk1; details: individual replicates (Supplementary Figure 4)
# In short: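 Antagonist mode: 800 nM (EC80) reference agonist Lundbeck Cmp 1a added following 20 min pre-incubation with 10 µM compound. GPR139-CHOk1 cells, Fluo-4 dye, probenecid-containing HEPES buffer pH 7.4; intracellular Ca2+ measured at 37 °C (ex 485, em 525 nm).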
# [3] = target: T2, human muscarinic acetylcholine M1 receptor (M1R) (Homo sapiens, UniProt P11229); assay: Ca2+ mobilization counter-screen in M1R-CHOk1 cells; details: individual replicates (Supplementary Figure 5);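 further: 10 µM test compound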
# T2 sequence (P11229 1-460): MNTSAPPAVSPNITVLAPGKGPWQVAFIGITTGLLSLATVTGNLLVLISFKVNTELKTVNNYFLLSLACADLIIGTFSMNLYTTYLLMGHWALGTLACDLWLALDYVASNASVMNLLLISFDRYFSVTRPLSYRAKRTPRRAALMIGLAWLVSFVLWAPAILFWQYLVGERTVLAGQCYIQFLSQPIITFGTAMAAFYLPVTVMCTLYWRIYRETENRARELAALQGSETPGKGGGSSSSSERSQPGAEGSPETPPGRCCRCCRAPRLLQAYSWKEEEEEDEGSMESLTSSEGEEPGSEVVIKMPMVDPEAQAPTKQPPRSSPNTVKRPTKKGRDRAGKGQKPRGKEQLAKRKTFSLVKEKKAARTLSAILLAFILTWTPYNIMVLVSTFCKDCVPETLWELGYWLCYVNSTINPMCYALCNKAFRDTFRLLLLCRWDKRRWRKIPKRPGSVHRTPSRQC
# In short: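 Intracellular calcium flux was measured by fluorescence (485 nm excitation, 525 nm emission) at 37 °C after automated compound addition following baseline, with final DMSO ≤0.3%. CHO-K1 cells stably expressing human M1R were plated 20–24 h beforehand. Cells were dye-loaded with 2 µM Fluo-4 AM for 1 h in pH 7.4 HEPES/HBSS containing 2.5 mM probenecid.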
# [4] = Agonist mode, individual replicates (Supplementary Figure 4)
# [5] = log [Compound] M = -4.5, individual replicate columns
# [6] = log [Compound] M = -5.0, individual replicate columns
# [7] = log [Compound] M = -5.5, individual replicate columns
# [8] = log [Compound] M = -6.0, individual replicate columns
# [9] = log [Compound] M = -6.5, individual replicate columns
# [10] = log [Compound] M = -7.0, individual replicate columns
# [11] = log [Compound] M = -7.5, individual replicate columns
# [12] = log [Compound] M = -8.0, individual replicate columns
# [13] = log [Compound] M = -8.5, individual replicate columns
# [14] = log [Compound] M = -9.0, individual replicate columns
SMILES,Ca2+ signal (% of Cmp 1a) (GPR139 [1]; [4]),EC50 (GPR139 [1]) [µM],Emax (GPR139 [1]) [%],Ca2+ signal (% of Cmp 1a) (GPR139 [1]; [5]),Ca2+ signal (% of Cmp 1a) (GPR139 [1]; [6]),Ca2+ signal (% of Cmp 1a) (GPR139 [1]; [7]),Ca2+ signal (% of Cmp 1a) (GPR139 [1]; [8]),Ca2+ signal (% of Cmp 1a) (GPR139 [1]; [9]),Ca2+ signal (% of Cmp 1a) (GPR139 [1]; [10]),Ca2+ signal (% of Cmp 1a) (GPR139 [1]; [11]),Ca2+ signal (% of Cmp 1a) (GPR139 [1]; [12]),Ca2+ signal (% of Cmp 1a) (GPR139 [1]; [13]),Ca2+ signal (% of Cmp 1a) (GPR139 [1]; [14]),Ca2+ signal (% of Cmp 1a) (GPR139 [2]),Ca2+ signal (% of Carbachol) [3]
"CCc1nc(-c2nc(CC(=O)NC(C)c3ccccc3)no2)co1 (stereo not drawn) [Compound 1.42, CCC1=NC(=CO1)C2=NC(CC(=O)NC(C)C=3C=CC=CC3)=NO2]",76 % of Cmp 1a and 54 % of Cmp 1a and 64 % of Cmp 1a,2,78 ± 3,65 % of Cmp 1a and 81 % of Cmp 1a and 83 % of Cmp 1a,44 % of Cmp 1a and 85 % of Cmp 1a and 76 % of Cmp 1a,31 % of Cmp 1a and 75 % of Cmp 1a and 78 % of Cmp 1a,9 % of Cmp 1a and 29 % of Cmp 1a and 21 % of Cmp 1a,-11 % of Cmp 1a and 1.56 % of Cmp 1a and 5.36 % of Cmp 1a,-2.41 % of Cmp 1a and 0.181 % of Cmp 1a and -5 % of Cmp 1a,-4.35 % of Cmp 1a and 3.27 % of Cmp 1a and -5.39 % of Cmp 1a,5 % of Cmp 1a and -2.46 % of Cmp 1a and -2 % of Cmp 1a,-3 % of Cmp 1a and -4 % of Cmp 1a and 0.00955 % of Cmp 1a,-3.77 % of Cmp 1a and 10 % of Cmp 1a and 3.66 % of Cmp 1a,24 % of Cmp 1a and -10 % of Cmp 1a and 49 % of Cmp 1a,-1.26 % of Carbachol and 0.364 % of Carbachol and 1.26 % of Carbachol
"Cc1nonc1Cc1nc(CC(=O)NC(C)c2ccccc2)no1 (stereo not drawn) [Compound 1.33, CC(C1=CC=CC=C1)NC(CC2=NOC(CC3=NON=C3C)=N2)=O]",66 % of Cmp 1a and 46 % of Cmp 1a and 64 % of Cmp 1a,3.98,88 ± 2,85 % of Cmp 1a (2×) and 90 % of Cmp 1a and 83 % of Cmp 1a,66 % of Cmp 1a and 64 % of Cmp 1a and 75 % of Cmp 1a and 85 % of Cmp 1a,43 % of Cmp 1a and 39 % of Cmp 1a and 20 % of Cmp 1a and 51 % of Cmp 1a,15 % of Cmp 1a and 21 % of Cmp 1a and 26 % of Cmp 1a and -5 % of Cmp 1a,7 % of Cmp 1a and 26 % of Cmp 1a and 10 % of Cmp 1a and -17 % of Cmp 1a,-3.33 % of Cmp 1a and 29 % of Cmp 1a and 0 % of Cmp 1a and -12 % of Cmp 1a,3 % of Cmp 1a and 6.33 % of Cmp 1a and 6 % of Cmp 1a and -13 % of Cmp 1a,1 % of Cmp 1a and 1.67 % of Cmp 1a and 3 % of Cmp 1a and -15 % of Cmp 1a,1.33 % of Cmp 1a (2×) and -3 % of Cmp 1a and -12 % of Cmp 1a,4.33 % of Cmp 1a and 6.33 % of Cmp 1a and 12 % of Cmp 1a and -16 % of Cmp 1a,30 % of Cmp 1a and 49 % of Cmp 1a and 42 % of Cmp 1a,-5 % of Carbachol and 8 % of Carbachol and 10 % of Carbachol
"Cc1ncc(-c2nc(CC(=O)NC(C)c3ccccc3)no2)o1 (stereo not drawn) [Compound 1.25, CC(C1=CC=CC=C1)NC(CC2=NOC(C3=CN=C(O3)C)=N2)=O]",86 % of Cmp 1a and 76 % of Cmp 1a and 90 % of Cmp 1a,2,97 ± 3,107 % of Cmp 1a and 102 % of Cmp 1a and 85 % of Cmp 1a and 96 % of Cmp 1a and 104 % of Cmp 1a,92 % of Cmp 1a (2×) and 95 % of Cmp 1a and 77 % of Cmp 1a and 93 % of Cmp 1a,62 % of Cmp 1a and 74 % of Cmp 1a and 52 % of Cmp 1a and 93 % of Cmp 1a and 64 % of Cmp 1a,43 % of Cmp 1a and 38 % of Cmp 1a and 31 % of Cmp 1a and 47 % of Cmp 1a and 36 % of Cmp 1a,17 % of Cmp 1a and 13 % of Cmp 1a and 4.22 % of Cmp 1a and 19 % of Cmp 1a and 9 % of Cmp 1a,7 % of Cmp 1a and 2.6 % of Cmp 1a and -3 % of Cmp 1a and 12 % of Cmp 1a and 3.24 % of Cmp 1a,10 % of Cmp 1a and 2.43 % of Cmp 1a and 2 % of Cmp 1a and 1.64 % of Cmp 1a and 4 % of Cmp 1a,3 % of Cmp 1a and 6 % of Cmp 1a (2×) and 5 % of Cmp 1a and 4.25 % of Cmp 1a,-0.76 % of Cmp 1a and -1.77 % of Cmp 1a and 0.877 % of Cmp 1a and 5.4 % of Cmp 1a and 0.153 % of Cmp 1a,0.813 % of Cmp 1a and 0.273 % of Cmp 1a and -1 % of Cmp 1a and 1 % of Cmp 1a and 2.54 % of Cmp 1a,3 % of Cmp 1a and 15 % of Cmp 1a and 5.33 % of Cmp 1a,5.35 % of Carbachol and 0.226 % of Carbachol and -1.63 % of Carbachol
"Cc1ccc(-c2nc(CC(=O)NC(C)c3ccccc3)no2)cc1C (stereo not drawn) [Compound 1.20, CC(C1=CC=CC=C1)NC(CC2=NOC(C3=CC(C)=C(C)C=C3)=N2)=O]",61 % of Cmp 1a and 51 % of Cmp 1a and 42 % of Cmp 1a,1.26,86 ± 11,64 % of Cmp 1a and 88 % of Cmp 1a and 90 % of Cmp 1a,59 % of Cmp 1a and 87 % of Cmp 1a and 93 % of Cmp 1a,48 % of Cmp 1a and 72 % of Cmp 1a and 74 % of Cmp 1a,21 % of Cmp 1a and 45 % of Cmp 1a and 55 % of Cmp 1a,9 % of Cmp 1a and 20 % of Cmp 1a and 28 % of Cmp 1a,10 % of Cmp 1a and 20 % of Cmp 1a and 26 % of Cmp 1a,10 % of Cmp 1a and -2 % of Cmp 1a and 9 % of Cmp 1a,2 % of Cmp 1a and -1.33 % of Cmp 1a and 4.67 % of Cmp 1a,7 % of Cmp 1a and -0.667 % of Cmp 1a and -6 % of Cmp 1a,5 % of Cmp 1a and 1.33 % of Cmp 1a and 10 % of Cmp 1a,4 % of Cmp 1a and 29 % of Cmp 1a and -0.333 % of Cmp 1a,-9 % of Carbachol and 12 % of Carbachol and 5 % of Carbachol
"Cc1cc(-c2nc(CC(=O)NC(C)c3ccccc3)no2)on1 (stereo not drawn) [Compound 1.30, CC(C1=CC=CC=C1)NC(CC2=NOC(C3=CC(C)=NO3)=N2)=O]",70 % of Cmp 1a and 59 % of Cmp 1a and 57 % of Cmp 1a,2.51,79 ± 3,86 % of Cmp 1a and 79 % of Cmp 1a and 75 % of Cmp 1a,85 % of Cmp 1a and 68 % of Cmp 1a (2×),52 % of Cmp 1a and 50 % of Cmp 1a (2×),-11 % of Cmp 1a and 14 % of Cmp 1a and 19 % of Cmp 1a,-12 % of Cmp 1a and 7 % of Cmp 1a (2×),-10 % of Cmp 1a and 8 % of Cmp 1a and -3 % of Cmp 1a,-14 % of Cmp 1a and 7 % of Cmp 1a and -8 % of Cmp 1a,-5.33 % of Cmp 1a and 5.67 % of Cmp 1a and 1.67 % of Cmp 1a,-11 % of Cmp 1a and -3 % of Cmp 1a and 1.67 % of Cmp 1a,10 % of Cmp 1a and 7 % of Cmp 1a and 3.67 % of Cmp 1a,46 % of Cmp 1a and 28 % of Cmp 1a and 13 % of Cmp 1a,4 % of Carbachol and -9 % of Carbachol and 13 % of Carbachol
